The source of these data is ChEMBL document CHEMBL5291721, “A preclinical secondary pharmacology resource illuminates target-adverse drug reaction associations of marketed drugs” (Nat Commun, 2023).

One test deals with T1, Androgen receptor (Homo sapiens, UniProt P10275).
T1 sequence (P10275 whole entry): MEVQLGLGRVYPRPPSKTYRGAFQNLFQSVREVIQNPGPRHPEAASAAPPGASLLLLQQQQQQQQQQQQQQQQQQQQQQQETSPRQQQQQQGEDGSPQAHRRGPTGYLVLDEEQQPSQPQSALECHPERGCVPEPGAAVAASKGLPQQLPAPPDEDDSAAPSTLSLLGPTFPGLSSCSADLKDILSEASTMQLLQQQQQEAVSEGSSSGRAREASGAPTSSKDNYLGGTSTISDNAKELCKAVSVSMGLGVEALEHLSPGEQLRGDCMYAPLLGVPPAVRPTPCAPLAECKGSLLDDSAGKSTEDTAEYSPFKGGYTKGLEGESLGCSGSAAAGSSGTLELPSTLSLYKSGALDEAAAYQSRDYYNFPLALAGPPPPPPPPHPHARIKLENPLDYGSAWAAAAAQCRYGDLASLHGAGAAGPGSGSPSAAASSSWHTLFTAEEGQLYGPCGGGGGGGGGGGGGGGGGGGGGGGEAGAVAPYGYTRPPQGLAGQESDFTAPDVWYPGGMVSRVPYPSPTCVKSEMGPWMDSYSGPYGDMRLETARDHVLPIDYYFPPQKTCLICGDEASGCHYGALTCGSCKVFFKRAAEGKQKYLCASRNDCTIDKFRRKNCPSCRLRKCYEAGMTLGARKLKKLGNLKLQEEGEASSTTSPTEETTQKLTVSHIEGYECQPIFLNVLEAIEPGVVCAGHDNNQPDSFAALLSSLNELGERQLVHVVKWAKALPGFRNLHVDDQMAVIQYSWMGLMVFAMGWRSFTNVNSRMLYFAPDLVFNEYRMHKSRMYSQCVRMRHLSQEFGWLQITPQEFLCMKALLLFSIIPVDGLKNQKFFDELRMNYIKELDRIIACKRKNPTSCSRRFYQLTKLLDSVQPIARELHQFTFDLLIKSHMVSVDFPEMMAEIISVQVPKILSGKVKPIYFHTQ

Test [1] concerns the target Gamma-aminobutyric acid receptor subunit alpha-1 (Rattus norvegicus, UniProt P62813).
Test [2] addresses T2, Alpha-1A adrenergic receptor (Homo sapiens, UniProt P35348).
T2 sequence (P35348 whole entry): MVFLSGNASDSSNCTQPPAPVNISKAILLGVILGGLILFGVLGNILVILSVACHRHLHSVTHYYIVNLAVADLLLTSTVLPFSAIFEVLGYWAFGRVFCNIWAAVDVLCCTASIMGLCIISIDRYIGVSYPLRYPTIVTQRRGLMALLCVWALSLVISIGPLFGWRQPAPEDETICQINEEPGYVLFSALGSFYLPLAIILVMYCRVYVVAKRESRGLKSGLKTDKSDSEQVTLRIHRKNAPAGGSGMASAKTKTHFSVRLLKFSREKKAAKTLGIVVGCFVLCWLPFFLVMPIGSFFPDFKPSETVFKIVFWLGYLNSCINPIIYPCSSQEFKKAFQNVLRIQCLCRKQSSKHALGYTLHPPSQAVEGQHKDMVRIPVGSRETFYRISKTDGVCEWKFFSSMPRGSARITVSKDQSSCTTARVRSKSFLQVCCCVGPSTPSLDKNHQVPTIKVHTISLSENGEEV

In test [3] the target is Gamma-aminobutyric acid receptor subunit alpha-1/alpha-2/beta-2/gamma-2 (Homo sapiens, UniProt P14867+P18507+P47869+P47870). It counts as protein-complex assay.
Sequence of Gamma-aminobutyric acid receptor subunit alpha-1/alpha-2/beta-2/gamma-2 (P14867 whole entry): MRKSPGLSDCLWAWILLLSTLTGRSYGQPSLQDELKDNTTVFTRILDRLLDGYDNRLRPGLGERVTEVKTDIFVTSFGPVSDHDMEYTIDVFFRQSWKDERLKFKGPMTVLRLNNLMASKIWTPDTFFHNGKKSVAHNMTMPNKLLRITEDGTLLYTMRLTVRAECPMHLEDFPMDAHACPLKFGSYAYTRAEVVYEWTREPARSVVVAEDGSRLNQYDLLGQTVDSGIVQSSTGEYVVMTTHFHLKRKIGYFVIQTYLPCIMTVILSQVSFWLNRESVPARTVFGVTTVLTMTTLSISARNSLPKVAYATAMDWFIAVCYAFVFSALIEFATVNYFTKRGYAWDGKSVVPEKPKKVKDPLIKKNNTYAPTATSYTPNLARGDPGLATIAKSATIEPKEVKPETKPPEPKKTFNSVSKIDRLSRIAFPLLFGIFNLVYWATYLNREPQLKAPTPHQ
Sequence of Gamma-aminobutyric acid receptor subunit alpha-1/alpha-2/beta-2/gamma-2 (P47870 whole entry): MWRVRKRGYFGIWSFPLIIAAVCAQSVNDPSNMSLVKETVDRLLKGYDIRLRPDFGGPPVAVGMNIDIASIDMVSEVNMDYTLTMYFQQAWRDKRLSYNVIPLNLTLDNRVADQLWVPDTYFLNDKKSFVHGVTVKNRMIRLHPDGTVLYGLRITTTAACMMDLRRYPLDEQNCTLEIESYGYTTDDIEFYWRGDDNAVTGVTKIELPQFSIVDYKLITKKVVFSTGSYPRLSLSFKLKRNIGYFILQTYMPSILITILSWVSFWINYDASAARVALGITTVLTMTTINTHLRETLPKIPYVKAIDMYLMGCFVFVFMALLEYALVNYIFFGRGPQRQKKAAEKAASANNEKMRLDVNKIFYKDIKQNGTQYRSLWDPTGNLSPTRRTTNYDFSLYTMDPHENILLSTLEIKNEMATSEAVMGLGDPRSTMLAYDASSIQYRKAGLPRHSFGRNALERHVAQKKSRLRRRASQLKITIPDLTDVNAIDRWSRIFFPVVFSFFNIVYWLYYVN
Sequence of Gamma-aminobutyric acid receptor subunit alpha-1/alpha-2/beta-2/gamma-2 (P18507 whole entry): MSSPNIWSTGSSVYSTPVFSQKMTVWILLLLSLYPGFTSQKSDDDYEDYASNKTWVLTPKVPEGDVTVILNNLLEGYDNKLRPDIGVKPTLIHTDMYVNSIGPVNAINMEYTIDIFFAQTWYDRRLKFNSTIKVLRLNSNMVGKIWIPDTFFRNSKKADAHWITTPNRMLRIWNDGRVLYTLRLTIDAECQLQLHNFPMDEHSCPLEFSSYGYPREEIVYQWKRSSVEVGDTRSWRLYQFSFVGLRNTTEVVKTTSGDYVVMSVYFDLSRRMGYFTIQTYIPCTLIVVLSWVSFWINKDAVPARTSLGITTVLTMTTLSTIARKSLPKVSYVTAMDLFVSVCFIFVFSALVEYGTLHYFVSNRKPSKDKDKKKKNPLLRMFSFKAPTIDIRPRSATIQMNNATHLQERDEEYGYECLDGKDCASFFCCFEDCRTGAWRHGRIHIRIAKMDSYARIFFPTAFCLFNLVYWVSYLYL
Sequence of Gamma-aminobutyric acid receptor subunit alpha-1/alpha-2/beta-2/gamma-2 (P47869 whole entry): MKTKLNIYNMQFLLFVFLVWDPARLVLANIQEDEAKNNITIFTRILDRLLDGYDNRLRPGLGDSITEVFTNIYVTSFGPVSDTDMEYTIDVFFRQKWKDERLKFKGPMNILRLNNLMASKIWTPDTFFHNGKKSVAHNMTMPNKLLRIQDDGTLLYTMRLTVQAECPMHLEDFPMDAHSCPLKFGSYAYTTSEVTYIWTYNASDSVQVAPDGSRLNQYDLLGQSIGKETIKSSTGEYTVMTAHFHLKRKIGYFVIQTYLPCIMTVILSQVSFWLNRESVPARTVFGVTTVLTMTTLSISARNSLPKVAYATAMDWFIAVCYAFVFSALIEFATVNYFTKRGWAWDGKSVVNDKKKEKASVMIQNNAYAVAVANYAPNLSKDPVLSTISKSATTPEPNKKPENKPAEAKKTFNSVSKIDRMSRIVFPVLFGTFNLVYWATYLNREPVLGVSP
Also: assay procedure not described here.

Sequence of Gamma-aminobutyric acid receptor subunit alpha-1 (P62813 whole entry): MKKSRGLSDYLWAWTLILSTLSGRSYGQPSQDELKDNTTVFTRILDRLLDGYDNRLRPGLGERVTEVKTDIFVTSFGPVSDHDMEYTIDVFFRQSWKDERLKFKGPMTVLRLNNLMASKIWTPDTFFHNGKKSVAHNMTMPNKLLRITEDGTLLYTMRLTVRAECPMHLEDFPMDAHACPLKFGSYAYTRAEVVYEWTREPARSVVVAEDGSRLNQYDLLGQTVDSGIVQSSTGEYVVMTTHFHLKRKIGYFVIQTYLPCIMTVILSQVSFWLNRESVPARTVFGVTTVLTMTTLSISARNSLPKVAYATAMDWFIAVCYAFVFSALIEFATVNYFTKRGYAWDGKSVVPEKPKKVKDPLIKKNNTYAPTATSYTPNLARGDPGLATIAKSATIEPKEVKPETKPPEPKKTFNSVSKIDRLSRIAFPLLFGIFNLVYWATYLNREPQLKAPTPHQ

Turning to `OC[C@H]1NC[C@H](O)[C@@H](O)[C@H]1O`, the AC50 (at Androgen receptor; in test [1]) was more than 30 µM throughout.
Consider `O=C(O)[C@@H](S)[C@@H](S)C(=O)O`, for which the AC50 in test [1] was more than 30 µM.
With `CCOC(=O)[C@H](CCc1ccccc1)N[C@@H](C)C(=O)N1Cc2ccccc2C[C@H]1C(=O)O`, the AC50 in test [2] is more than 10 µM; in test [1] it was more than 30 µM.
In test [2], `C=CC1=C(C(=O)O)N2C(=O)[C@@H](NC(=O)/C(=N\O)c3csc(N)n3)[C@H]2SC1` registered an AC50 of more than 10 µM.
Turning to `CC#CC(=O)N1CCC[C@H]1c1nc(-c2ccc(C(=O)Nc3ccccn3)cc2)c2c(N)nccn12` [ACALABRUTINIB], the AC50 (at Androgen receptor; in test [3]; in test [1]) was more than 30 µM in each case.
In test [2], `O=C(O)COC(=O)Cc1ccccc1Nc1c(Cl)cccc1Cl` [ACECLOFENAC] had an AC50 of more than 10 µM.
Turning to `C=CCOc1ccc(CC(=O)O)cc1Cl` [ALCLOFENAC], in test [1], the AC50 was more than 30 µM.
In the case of `NCCCCCC(=O)O` [AMINOCAPROIC ACID], the concentration at half-maximal activity (AC50) in test [2] was more than 10 µM.
Regarding `CN(C)CCC=C1c2ccccc2CCc2ccccc21` [AMITRIPTYLINE], the figures for the AC50 in test [2] and in test [3] were 0.0299 µM and more than 30 µM, respectively.
For `CC(=O)Oc1ccccc1C(=O)O` [ASPIRIN], the AC50 was more than 10 µM in test [2], more than 30 µM on Androgen receptor and more than 30 µM in test [3].
For the compound `CC(C)C[C@H](NC(=O)[C@H](Cc1ccccc1)NC(=O)c1cnccn1)B(O)O` [BORTEZOMIB], the half-maximal activity concentration (AC50) in test [2] is more than 30 µM.
`C[C@H](CS)C(=O)N1CCC[C@H]1C(=O)O` [CAPTOPRIL] had an AC50 in test [2] of more than 10 µM.
As to `CCN(CC)CCn1c(=O)c(Cc2ccc(OC)cc2)nc2ccccc21` [CAROVERINE], the activity in test [2] was half-maximal at 8.9 µM (AC50).
In the case of `NC(=O)C1(N2CCCCC2)CCN(CCCN2c3ccccc3CCc3ccccc32)CC1` [CARPIPRAMINE], the AC50 (on Androgen receptor; in test [3]) was more than 30 µM in each case.
Consider `O=C(Cc1cccs1)N[C@@H]1C(=O)N2C(C(=O)[O-])=C(C[n+]3ccccc3)CS[C@H]12` [CEPHALORIDINE], for which the AC50 (on Androgen receptor; in test [1]) was more than 30 µM in each case.
With `CN1CCN(C(c2ccccc2)c2ccc(Cl)cc2)CC1` (configuration not stated) [CHLORCYCLIZINE], the AC50 in test [3] was more than 30 µM.
Consider `CN(C)CCCC1(c2ccc(F)cc2)OCc2cc(C#N)ccc21` (configuration not stated) [CITALOPRAM], for which, in test [1], the AC50 was more than 30 µM.
As to `CCCCCCCCCCCCCCCC(=O)OC[C@H](COP(=O)([O-])OCC[N+](C)(C)C)OC(=O)CCCCCCCCCCCCCCC` [COLFOSCERIL PALMITATE], the AC50 (at Androgen receptor; in test [1]) was more than 30 µM each time.
In test [3], `O=P1(N(CCCl)CCCl)NCCCO1` (configuration not stated) [CYCLOPHOSPHAMIDE ANHYDROUS] showed an AC50 of more than 30 µM.
`CC(C)Nc1cccnc1N1CCN(C(=O)c2cc3cc(NS(C)(=O)=O)ccc3[nH]2)CC1` [DELAVIRDINE] had an AC50 in test [3] of more than 10 µM.
On to `C[C@@H](CN1CC(=O)NC(=O)C1)N1CC(=O)NC(=O)C1` [DEXRAZOXANE], for which the AC50 (on Androgen receptor; in test [1]) was more than 30 µM throughout.
Turning to `COC(=O)CCc1ccc(OCC(O)CNC(C)C)cc1` (configuration not stated) [ESMOLOL], the half-maximal activity concentration (AC50) in test [2] was more than 30 µM.
As for `C[C@]12CC[C@@H]3c4ccc(OC(=O)N(CCCl)CCCl)cc4CC[C@H]3[C@@H]1CC[C@@H]2OP(=O)(O)O` [ESTRAMUSTINE PHOSPHATE], the AC50 (at Androgen receptor; in test [1]) was more than 30 µM each time.
For `O=c1[nH]c2ccccc2n1CCN1CCN(c2cccc(C(F)(F)F)c2)CC1` [FLIBANSERIN], the AC50 at Androgen receptor is more than 30 µM; in test [3], more than 10 µM.
In the case of `C[C@]12CCC(=O)C=C1CC[C@H]1[C@@H]3CC[C@](O)(C(=O)CO)[C@@]3(C)C[C@H](O)[C@@]12F` [FLUDROCORTISONE], the AC50 in test [2] was more than 10 µM.
The compound `O=c1[nH]cc(F)c(=O)[nH]1` [FLUOROURACIL] gave an AC50 in test [1] of more than 30 µM.
Regarding `O=C(O)[C@H](O)[C@@H](O)[C@H](O)[C@H](O)CO` [GLUCONIC ACID], in test [3], the AC50 was more than 30 µM.
In test [1], `N=C(N)NCC1COc2ccccc2O1` (configuration not stated) [GUANOXAN] came in with an AC50 of more than 30 µM.
On to `CCN(CCO)CCCC(C)Nc1ccnc2cc(Cl)ccc12` (configuration not stated) [HYDROXYCHLOROQUINE], for which the AC50 in test [2] is more than 10 µM.
Same read-out and setting: next, `OCCOCCN1CCN(C(c2ccccc2)c2ccc(Cl)cc2)CC1` (configuration not stated) [HYDROXYZINE]: 1.66 µM.
As to `N#Cc1ccnc(N2C(=O)CC[C@H]2C(=O)N(c2cncc(F)c2)[C@H](C(=O)NC2CC(F)(F)C2)c2ccccc2Cl)c1` [IVOSIDENIB], the AC50 (at Androgen receptor; in test [3]) was more than 30 µM in each case.
With `CNC1(c2ccccc2Cl)CCCCC1=O` (configuration not stated) [KETAMINE], in test [3], the half-maximal activity concentration (AC50) was more than 30 µM.
`O=C(c1ccccc1)c1ccc2n1CCC2C(=O)O` (configuration not stated) [KETOROLAC] displayed an AC50 in test [2] of more than 10 µM.
Same read-out and setting: next, `Nc1nnc(-c2cccc(Cl)c2Cl)c(N)n1` [LAMOTRIGINE]: more than 10 µM.
`O=NN(CCCl)C(=O)NC1CCCCC1` [LOMUSTINE] had a concentration at half-maximal activity (AC50) in test [1] of more than 30 µM.
Regarding `CCCCCCO[C@@H](C)c1cccc(-c2csc(NC(=O)c3cc(Cl)c(/C=C(\C)C(=O)O)c(Cl)c3)n2)c1OC` [LUSUTROMBOPAG], the AC50 (at Androgen receptor; in test [1]) was more than 30 µM each time.
Compound `CNC1(C)C2CCC(C2)C1(C)C` (configuration not stated) [MECAMYLAMINE] displayed an AC50 in test [2] of more than 10 µM.
Turning to `Cc1cc(C)cc(OCC2CNC(=O)O2)c1` (configuration not stated) [METAXALONE], the AC50 in test [1] was more than 30 µM.
Same read-out and setting: next, `CO[C@@]1(NC(=O)C(C(=O)O)c2ccc(O)cc2)C(=O)N2C(C(=O)O)=C(CSc3nnnn3C)CO[C@@H]21` (some centres not stated) [MOXALACTAM]: more than 30 µM.
In turn, `CS(=O)(=O)Nc1ccc([N+](=O)[O-])cc1Oc1ccccc1` [NIMESULIDE] yielded an AC50 in test [3] of more than 30 µM.
On the same count and under the same terms, next, `CCCCCCCC/C=C\CCCCCCCC(=O)O` [OLEIC ACID]: more than 30 µM.
Turning to `C#CCN(C)Cc1ccccc1` [PARGYLINE], the AC50 in test [1] is more than 30 µM.
For `CC1=C(C/C=C(\C)CCC[C@H](C)CCC[C@H](C)CCCC(C)C)C(=O)c2ccccc2C1=O` [PHYTONADIONE], the AC50 in test [3] was more than 30 µM.
`NC(=O)C1(N2CCCCC2)CCN(CCCC(=O)c2ccc(F)cc2)CC1` [PIPAMPERONE] had an AC50 in test [3] of more than 30 µM.
Take `COc1cccc2c1C(=O)c1c(O)c3c(c(O)c1C2=O)C[C@@](O)(C(=O)CO)C[C@@H]3O[C@H]1C[C@H](N)[C@H](O[C@@H]2CCCCO2)[C@H](C)O1` [PIRARUBICIN]: the AC50 (on Androgen receptor; in test [1]) was more than 30 µM throughout.
As to `CC(C)(Oc1ccc(Cl)cc1)C(=O)NC(=O)NCN1CCOCC1` [PLAFIBRIDE], the AC50 (at Androgen receptor; in test [3]) was more than 30 µM throughout.
As for `CC(C)NC[C@H](O)COc1ccc(O)cc1` [PRENALTEROL], the AC50 (on Androgen receptor; in test [3]; in test [1]) was more than 30 µM in each case.
As for `CCC1(c2ccccc2)C(=O)NCNC1=O` [PRIMIDONE], the AC50 in test [2] is more than 10 µM.
Consider `CN1CCC(N(Cc2cccs2)c2ccccc2)CC1` [THENALIDINE], for which, in test [1], the AC50 is more than 30 µM.
In test [3], `Cc1ccc(C(C)C)c(O)c1` [THYMOL] came in with an AC50 of more than 30 µM.
As to `CN(C)CCN(Cc1ccccc1)c1ccccn1` [TRIPELENNAMINE], the AC50 was 10.8 µM in test [2] and more than 30 µM in test [1].
`Cc1cccc(C)c1NC(=O)c1cc(S(N)(=O)=O)c(Cl)cc1O` [XIPAMIDE] came in with an AC50 in test [3] of more than 30 µM.

Broadly, the AC50 is the concentration at which the activity in the assay is half-maximal.
